Laboratory results published in patent US12071408B2, “Multi-targeted tyrosine kinase inhibitors effective in antitumor uses” (Shanghai AB PharmaTech Ltd., priority 2021, dated 2024).
Values joined by “and” are separate entries in the source; they are usually repeats but may differ in a detail not shown here. Identical values can stand only once. Like-named read-outs stand apart in the source and are kept apart here.

Legend:
hERG potassium channels = hERG potassium channels (Homo sapiens (Human), UniProt Q12809); assay: hERG in vitro inhibition, whole-cell patch clamp; assay type: cell-based; conditions: in vitro hERG current inhibition
[1] = test system: hepatocellular carcinoma cell line (Hep3B 2.1-7); assay: Tumor cell proliferation inhibition (CTG, 72 h); assay type: cell-based; conditions: Homo sapiens; Hep3B 2.1-7 cells, class; read-out: Hep3B 2.1-7 range of activity (IC50)
[2] = test system: bladder cancer cell line (RT112/84); assay: Tumor cell proliferation inhibition (CTG, 72 h); assay type: cell-based; conditions: Homo sapiens
[3] = test system: thyroid cancer cell line (TT); assay: Tumor cell proliferation inhibition (CTG, 72 h); assay type: cell-based
[4] = test system: cervical cancer cell line (Hela); assay: Tumor cell proliferation inhibition (CTG, 72 h); assay type: cell-based; conditions: Homo sapiens; Hela cells, class; read-out: Hela activity effect range (IC50)
[5] = test system: leukemia cell line (K562); assay: Tumor cell proliferation inhibition (CTG, 72 h); assay type: cell-based; conditions: Homo sapiens; K562 cells, class; read-out: K562 activity effect range (IC50)
VEGFR-1 (FLT1) = VEGFR-1 (FLT1) (Homo sapiens (Human), UniProt P17948); assay: Kinase inhibition, Mobility-Shift Assay; assay type: biochemical
VEGFR-2 (KDR) = VEGFR-2 (KDR) (Homo sapiens (Human), UniProt P35968); assay: Kinase inhibition, Mobility-Shift Assay; assay type: biochemical
VEGFR-3 (FLT4) = VEGFR-3 (FLT4) (Homo sapiens (Human), UniProt P35916); assay: Kinase inhibition, Mobility-Shift Assay; assay type: biochemical
FGFR1 = FGFR1 (Homo sapiens (Human), UniProt P11362); assay: Kinase inhibition, Mobility-Shift Assay; assay type: biochemical; conditions: read-out: FGFR-1 IC50
FGFR2 = FGFR2 (Homo sapiens (Human), UniProt P21802); assay: Kinase inhibition, Mobility-Shift Assay; assay type: biochemical
FGFR3 = FGFR3 (Homo sapiens (Human), UniProt P22607); assay: Kinase inhibition, Mobility-Shift Assay; assay type: biochemical; conditions: read-out: FGFR-3 IC50
Description: In this experiment, the inhibitory effects of small molecule inhibitors on 17 kinases were examined by using fluorescent microfluidic mobility shift assay (Mobility-Shift Assay).
2. Compounds were configured in 100% DMSO in a concentration gradient and diluted with buffer to 10% DMSO, and added to 384-well plates. Compounds starting at […] are prepared in 100% DMSO to 25 μM and diluted in a gradient of 10 concentrations, then diluted 10-fold in buffer to make an intermediate dilution of the compound containing 10% DMSO and transferred 5 μl to a 384-well plate. 3. The kinase was diluted to optimal concentration with the following buffers: 50 mM HEPES, pH 7.5, 0.00015% Brij-35, 2 mM DTT (final concentration of enzyme reaction: VEGFR-1 (FLT1): 2 nM; VEGFR-2 (KDR): 1.2 nM; VEGFR-3 (FLT4): 1.5 nM; FGFR1: 2 nM); FGFR2: 9 nM; FGFR3: 8 nM; FGFR4: 10 nM; PDGFRα: 3.5 nM; c-MET: 10 nM; RET: 7 nM; EGFR: 6 nM). Transfer 10 μl into a 384-well plate and incubate with the compounds for 10 min. 4. […] Read the conversion rate with Caliper Reader and calculate the conversion rate as suppression, formula Percent inhIcition=(max−conversion)/(max−min)*100. […]

FGFR4 = FGFR4 (Homo sapiens (Human), UniProt P22455); assay: Kinase inhibition, Mobility-Shift Assay; assay type: biochemical
RET = RET (Homo sapiens (Human), UniProt P07949); assay: Kinase inhibition, Mobility-Shift Assay; assay type: biochemical
PDGFRα = PDGFRα (Homo sapiens (Human), UniProt P16234); assay: Kinase inhibition, Mobility-Shift Assay; assay type: biochemical
EGFR = EGFR (Homo sapiens (Human), UniProt P00533); assay: Kinase inhibition, Mobility-Shift Assay; assay type: biochemical
C-MET = C-MET (Homo sapiens (Human), UniProt P08581); assay: Kinase inhibition, Mobility-Shift Assay; assay type: biochemical
ABL = ABL (Homo sapiens (Human), UniProt P00519); assay: Kinase inhibition, Mobility-Shift Assay; assay type: biochemical
[6] = MTD toxicity test in rats; conditions: rat, in vivo, rats, read-out: MTD toxicity dose
rats [7] = assay: MTD toxicity test in rats; conditions: rat, in vivo, 300 mg/kg
rats [8] = assay: 28-day GLP toxicity test; assay type: in vivo; conditions: 50, 100, 150 mg/kg once a day by gavage, 28 days
Description: The 28-day GLP toxicity test also used healthy rats at three doses (50 mg/kg, 100 mg/kg, 150 mg/kg), and the three groups of rats were administered once a day by gavage, and the toxicity of the test substance was evaluated by observing the toxicity response of the experimental animals for 28 consecutive days. […] Therefore, the preferred compound “III-01” designed and synthesized by the present invention not only has better inhibitory activity, but also has better safety and drug-forming properties, which is worthy of further clinical trials and application.

EGFR, sequence (P00533 25-1210): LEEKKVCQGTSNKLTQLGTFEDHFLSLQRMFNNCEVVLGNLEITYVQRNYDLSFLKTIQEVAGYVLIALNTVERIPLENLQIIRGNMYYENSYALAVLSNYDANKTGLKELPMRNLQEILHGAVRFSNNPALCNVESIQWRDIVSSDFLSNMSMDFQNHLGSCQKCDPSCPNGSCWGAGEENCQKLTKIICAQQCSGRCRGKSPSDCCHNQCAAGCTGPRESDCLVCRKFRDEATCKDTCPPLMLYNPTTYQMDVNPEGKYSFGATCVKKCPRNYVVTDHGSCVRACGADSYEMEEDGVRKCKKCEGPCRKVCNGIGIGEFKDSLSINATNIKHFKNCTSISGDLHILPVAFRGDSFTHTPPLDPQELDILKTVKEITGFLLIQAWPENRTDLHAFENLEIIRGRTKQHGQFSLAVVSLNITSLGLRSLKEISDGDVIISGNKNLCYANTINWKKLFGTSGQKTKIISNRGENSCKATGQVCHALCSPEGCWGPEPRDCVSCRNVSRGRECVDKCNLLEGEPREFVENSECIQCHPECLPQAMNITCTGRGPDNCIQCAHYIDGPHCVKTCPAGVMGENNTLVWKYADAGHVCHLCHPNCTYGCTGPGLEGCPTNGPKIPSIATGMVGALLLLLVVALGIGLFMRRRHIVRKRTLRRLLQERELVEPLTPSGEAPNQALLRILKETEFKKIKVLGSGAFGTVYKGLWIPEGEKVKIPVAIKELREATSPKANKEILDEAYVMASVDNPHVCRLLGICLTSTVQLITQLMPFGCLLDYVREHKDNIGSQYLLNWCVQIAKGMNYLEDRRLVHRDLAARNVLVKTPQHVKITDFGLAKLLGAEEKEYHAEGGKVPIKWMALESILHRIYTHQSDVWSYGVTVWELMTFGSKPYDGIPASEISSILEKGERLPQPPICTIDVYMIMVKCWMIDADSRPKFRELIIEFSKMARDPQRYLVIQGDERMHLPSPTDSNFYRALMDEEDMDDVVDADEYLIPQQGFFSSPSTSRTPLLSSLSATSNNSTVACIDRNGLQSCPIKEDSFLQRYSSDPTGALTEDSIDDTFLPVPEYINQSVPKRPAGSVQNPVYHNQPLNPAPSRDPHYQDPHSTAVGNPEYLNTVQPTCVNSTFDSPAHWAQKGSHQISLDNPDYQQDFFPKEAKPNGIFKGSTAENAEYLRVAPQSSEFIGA
VEGFR-2 (KDR), sequence (P35968 20-1356): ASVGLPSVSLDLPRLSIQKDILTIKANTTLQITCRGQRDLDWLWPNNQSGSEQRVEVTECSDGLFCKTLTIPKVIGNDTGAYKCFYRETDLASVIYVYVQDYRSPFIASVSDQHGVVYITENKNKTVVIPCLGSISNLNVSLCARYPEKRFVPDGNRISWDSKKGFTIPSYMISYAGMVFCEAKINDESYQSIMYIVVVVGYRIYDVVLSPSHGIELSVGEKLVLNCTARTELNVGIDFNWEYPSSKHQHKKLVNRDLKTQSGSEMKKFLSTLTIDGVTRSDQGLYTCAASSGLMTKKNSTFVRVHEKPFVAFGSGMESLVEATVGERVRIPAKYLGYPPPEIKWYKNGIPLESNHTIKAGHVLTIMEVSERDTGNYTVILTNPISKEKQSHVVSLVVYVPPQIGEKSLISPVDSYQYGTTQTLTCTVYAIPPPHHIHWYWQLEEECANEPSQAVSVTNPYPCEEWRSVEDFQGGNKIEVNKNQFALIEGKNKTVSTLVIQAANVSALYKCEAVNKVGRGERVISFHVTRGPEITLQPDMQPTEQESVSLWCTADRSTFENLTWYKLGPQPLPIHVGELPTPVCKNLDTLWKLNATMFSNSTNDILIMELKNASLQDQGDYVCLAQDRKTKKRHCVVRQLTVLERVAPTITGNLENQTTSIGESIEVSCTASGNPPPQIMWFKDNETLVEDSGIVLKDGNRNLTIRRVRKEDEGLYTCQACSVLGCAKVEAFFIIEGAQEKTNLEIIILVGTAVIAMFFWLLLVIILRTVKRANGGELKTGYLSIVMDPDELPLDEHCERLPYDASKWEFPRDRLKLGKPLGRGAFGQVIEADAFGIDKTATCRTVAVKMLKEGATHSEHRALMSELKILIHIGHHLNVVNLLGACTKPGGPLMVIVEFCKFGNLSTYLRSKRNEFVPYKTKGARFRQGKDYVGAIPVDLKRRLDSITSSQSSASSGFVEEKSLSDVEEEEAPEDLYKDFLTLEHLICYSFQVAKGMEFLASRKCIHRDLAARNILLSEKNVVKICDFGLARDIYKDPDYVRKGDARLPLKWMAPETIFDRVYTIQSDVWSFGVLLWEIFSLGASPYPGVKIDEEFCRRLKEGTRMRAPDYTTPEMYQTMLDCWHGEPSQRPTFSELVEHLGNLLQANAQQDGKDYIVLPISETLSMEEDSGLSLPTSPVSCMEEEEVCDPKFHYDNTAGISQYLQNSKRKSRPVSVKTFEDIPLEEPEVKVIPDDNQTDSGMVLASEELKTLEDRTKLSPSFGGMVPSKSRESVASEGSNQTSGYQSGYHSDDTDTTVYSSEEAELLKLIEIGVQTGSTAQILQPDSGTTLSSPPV
FGFR4, sequence (P22455 22-802): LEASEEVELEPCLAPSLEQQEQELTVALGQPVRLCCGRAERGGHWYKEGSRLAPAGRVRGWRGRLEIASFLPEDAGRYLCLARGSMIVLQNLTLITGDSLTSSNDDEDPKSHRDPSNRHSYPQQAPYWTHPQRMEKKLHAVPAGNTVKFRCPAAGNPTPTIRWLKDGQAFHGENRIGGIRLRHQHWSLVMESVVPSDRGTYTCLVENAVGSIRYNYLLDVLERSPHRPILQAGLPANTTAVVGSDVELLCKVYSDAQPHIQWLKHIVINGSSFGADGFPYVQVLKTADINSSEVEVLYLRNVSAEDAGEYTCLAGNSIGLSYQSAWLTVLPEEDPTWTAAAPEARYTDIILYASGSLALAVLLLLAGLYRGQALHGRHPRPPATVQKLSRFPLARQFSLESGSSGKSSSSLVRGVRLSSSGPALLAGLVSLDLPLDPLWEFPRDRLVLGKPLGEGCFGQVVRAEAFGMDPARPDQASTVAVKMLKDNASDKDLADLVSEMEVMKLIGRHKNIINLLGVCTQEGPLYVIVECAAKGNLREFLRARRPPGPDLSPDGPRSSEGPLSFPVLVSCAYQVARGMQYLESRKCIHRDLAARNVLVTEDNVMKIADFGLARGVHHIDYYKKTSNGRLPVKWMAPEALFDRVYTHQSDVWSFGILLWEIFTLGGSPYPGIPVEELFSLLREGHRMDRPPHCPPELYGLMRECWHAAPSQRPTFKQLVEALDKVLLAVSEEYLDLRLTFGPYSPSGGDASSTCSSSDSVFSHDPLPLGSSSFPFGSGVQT
C-MET, sequence (P08581 25-1390): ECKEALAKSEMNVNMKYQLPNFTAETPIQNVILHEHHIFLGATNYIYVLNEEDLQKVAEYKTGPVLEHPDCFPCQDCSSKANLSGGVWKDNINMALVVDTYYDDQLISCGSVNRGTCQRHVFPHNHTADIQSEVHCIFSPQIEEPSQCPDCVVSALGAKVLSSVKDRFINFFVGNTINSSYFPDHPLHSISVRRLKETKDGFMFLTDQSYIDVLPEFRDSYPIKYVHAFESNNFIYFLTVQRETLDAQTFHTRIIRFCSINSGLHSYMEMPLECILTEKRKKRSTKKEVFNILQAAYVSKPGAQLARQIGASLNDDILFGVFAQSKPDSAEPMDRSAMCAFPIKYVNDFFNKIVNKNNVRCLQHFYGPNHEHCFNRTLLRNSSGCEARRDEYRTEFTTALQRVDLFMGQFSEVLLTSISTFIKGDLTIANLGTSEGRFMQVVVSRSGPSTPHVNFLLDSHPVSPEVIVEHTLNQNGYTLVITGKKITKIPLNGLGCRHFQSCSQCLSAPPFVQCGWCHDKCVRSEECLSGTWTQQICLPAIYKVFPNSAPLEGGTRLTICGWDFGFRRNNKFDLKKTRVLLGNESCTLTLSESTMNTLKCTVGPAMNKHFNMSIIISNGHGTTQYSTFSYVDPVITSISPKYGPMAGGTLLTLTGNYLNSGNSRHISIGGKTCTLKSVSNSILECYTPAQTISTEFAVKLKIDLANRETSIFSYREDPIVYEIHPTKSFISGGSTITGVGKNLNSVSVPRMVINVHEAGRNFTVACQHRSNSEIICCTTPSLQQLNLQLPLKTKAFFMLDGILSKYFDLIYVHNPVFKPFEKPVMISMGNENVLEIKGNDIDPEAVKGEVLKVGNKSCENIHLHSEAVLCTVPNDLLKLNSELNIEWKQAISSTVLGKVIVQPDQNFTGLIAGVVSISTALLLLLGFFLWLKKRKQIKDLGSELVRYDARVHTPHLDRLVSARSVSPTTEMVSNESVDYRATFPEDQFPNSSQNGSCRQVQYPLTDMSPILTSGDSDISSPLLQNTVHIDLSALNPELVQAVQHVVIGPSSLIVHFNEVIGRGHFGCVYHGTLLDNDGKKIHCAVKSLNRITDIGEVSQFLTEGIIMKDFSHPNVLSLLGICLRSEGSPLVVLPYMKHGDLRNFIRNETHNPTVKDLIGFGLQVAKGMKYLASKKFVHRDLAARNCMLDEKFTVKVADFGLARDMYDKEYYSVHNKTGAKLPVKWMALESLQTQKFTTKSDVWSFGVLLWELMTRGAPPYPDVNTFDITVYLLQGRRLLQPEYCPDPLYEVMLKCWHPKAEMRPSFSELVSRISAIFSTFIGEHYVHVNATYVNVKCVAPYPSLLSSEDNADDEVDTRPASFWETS

COc1cc2nccc(Oc3c(F)cc(NC(=O)NC4CC4)c(Cl)c3F)c2cc1C(N)=O [III-01]
IC50 (hERG potassium channels): > 30000 nM | IC50 [1]: < 2500 nM | IC50 ([2]; RT112/84 bladder cancer cells, 72 h, read-out: RT112/84 (uM), inhibitory activity IC50): 0.13 µM | IC50 ([2]; RT112/84 cells, class, read-out: RT112/84 range of activity (IC50)): < 0.2 µM | IC50 ([3]; Homo sapiens, TT cells, class, read-out: TT range of activity (IC50)): < 5 µM | IC50 ([3]; TT thyroid cancer cells, 72 h, read-out: TT (uM), inhibitory activity IC50): 1.5 µM | IC50 [4]: 5000 to 10000 nM | IC50 [5]: 5000 to 10000 nM | IC50 (VEGFR-1 (FLT1)): 3.7 nM | IC50 (VEGFR-2 (KDR); class, read-out: KDR activity effect range (IC50)): < 2 nM | IC50 (VEGFR-2 (KDR); read-out: VEGFR-2 (KDR) IC50): 0.6 nM | IC50 (VEGFR-3 (FLT4)): 1.1 nM | IC50 (FGFR1): 14 nM | IC50 (FGFR2; class, read-out: FGFR2 range of activity effects (IC50)): < 30 nM | IC50 (FGFR2; read-out: FGFR-2 IC50): 11 nM | IC50 (FGFR3): 22 nM | IC50 (FGFR4; class, read-out: FGFR4 range of activity effects (IC50)): < 30 nM | IC50 (FGFR4; read-out: FGFR-4 IC50): 17 nM | IC50 (RET): 2.5 nM | IC50 (PDGFRα): 7.9 nM | IC50 (EGFR; class, read-out: EGFR range of activity (IC50)): < 60 nM | IC50 (EGFR; read-out: EGFR IC50): 58 nM and 53 nM | IC50 (C-MET; class, read-out: C-MET range of activity (IC50)): 60 to 100 nM | IC50 (C-MET; read-out: C-MET IC50): 96 nM | IC50 (ABL): 68 nM | MTD ([6]; 300 mg/kg): 300 mg/kg | MTD [6]: > 300 mg/kg | Observation at MTD dose (rats [7]): without any abnormalities such as death | Autopsy results, 28-day GLP toxicity test (rats [8]): did not reveal any abnormal changes | Ames assay (Ames assay): negative
